Measurements reported in patent publication US20220281930A1, “COMPOSITIONS AND METHODS FOR THE TREATMENT OF PATHOLOGICAL PAIN AND ITCH” (DUKE UNIVERSITY, priority 2019, published 2022).

Tests used:
KCC2 promoter = experiment: KCC2-LUC luciferase primary screen in primary cortical neurons; format: cell-based, mouse; details: rank score, 100 nM, 48 h
Procedure: Cytosine arabinoside ([…]) was added to cultures on the second day after seeding [2 d in vitro (DIV)] to inhibit the proliferation of non-neuronal cells. Cell suspension was plated at a density of 1×10^6 cells/ml onto 24-well tissue-culture dishes coated with poly-d-lysine.
LUC activity was then determined for each compound. Culture supernatant was removed and cells were lysed with 150 μl lysis buffer (Targeting Systems CA, USA cat. CLR1). LUC activity was measured with a RedLuciferase Assay kit (Targeting Systems cat. FLAR) according to the manufacturer's instructions. A Veritas microplate luminometer was used to measure luminescence; for each treatment triplicates of 40 μl cell lysates (from each 24-well tissue-culture dish) were used and 25 μl substrate was injected per well. […] Relative Light units (RLU) for each treatment was derived from Light Units (compound treatment)/vehicle treatment (0.5% DMSO).
The primary screen encompassed three levels of LUC measurements. […] Each compound was ranked based on composite scores from primary and secondary screening.

[1] = system: intracellular chloride ([Cl—]i); experiment: Secondary screen: Clomeleon chloride imaging in primary mouse neurons; format: cell-based; design: chloride reduction (%): concentration or dose not given beside the values; details: for Clomeleon Score (duplicates): rank score; for chloride reduction (%): from the [Cl—]i pair of the same line; for chloride [Cl—]i mM: value after compound, control => treated
Procedure: (§1) The primary screen encompassed three levels of LUC measurements. The first level of screening yielded a total of 137 compounds with cut-off RLU>125% LUC activity. These 137 compounds were subject to second round of screening, which was carried out in duplicate independent assays to yield the top 103 compounds sorted for highest RLU. The 103 compounds were then subjected to a third round of screening carried out in duplicate independent assays to yield the top 40 compounds which were again ranked. The best 22 of these 40 compounds (ranked for highest RLU activity) were subjected to secondary screening: Cultured neurons were treated with the 22 compounds; RT-qPCR and Clomeleon imaging methodologies (Yeo et al., 2009, J Neurosci 29:14652-14662) were used to determine effects of compounds on KCC2 mRNA expression and [Cl—]i, respectively. Each compound was ranked based on composite scores from primary and secondary screening.
(§2) Chloride imaging of primary cultured cortical neurons was conducted as previously described (Kuner and Augustine, 2000, Neuron 27:447-459; Liedtke et al., 2013, Small 9:1066-1075; Yeo et al., 2009, J Neurosci 29:14652-14662). A Clomeleon expression plasmid was transfected into primary cortical neurons by electroporation (Amaxa Nucleofector Device). Transfected neurons were verified by yellow fluorescent protein (YFP) fluorescence, and ratiometric images (excitation at λ=434 nm, dual emission at λ=485 and 535 nm; for resting chloride, six stable frames at […] were captured, which were averaged) were acquired using RATIOTOOL program. Calibration of Clomeleon signals (535 nm/485 nm emission ratio) was performed by using tributyltin-nigericin to establish a standard curve, which was then normalized for measured intraneuronal pH to take into account the pH sensitivity of Clomeleon.
(§3) To identify KCC2 gene expression enhancing compounds, cultured primary cortical neurons were cultured from KCC2-luciferase(LUC)-knockin (KCC2-LUCki) mice (Liedtke et al., 2013, Small 9:1066-1075; Yeo et al., 2013, Proc Natl Acad Sci USA 110:4315-4320) and used LUC metrics as readout for activity of the proximal KCC2 promoter (2.5 kB (Yeo et al., 2009, J Neurosci 29:14652-14662)), which drives LUC in this mouse transgenic line. A Z′ factor of 0.94 was obtained. This strategy will not select for long-range enhancers of KCC2 gene expression that act outside the 2.5 kB core KCC2 promoter. 1057 compounds, contained in two NCI libraries (FIG. 1), related to inhibition of growth of malignantly transformed cells were screened. Iterative screening followed by measurements of KCC2 mRNA (RT-qPCR) and intracellular chloride ([Cl—]i), using clomeleon chloride indicator protein (Kuner and Augustine, 2000, Neuron 27:447-459; Yeo et al., 2009, J Neurosci 29:14652-14662), led to decreasing numbers of confirmed and re-confirmed hits, and 4 “winner” compounds were selected (FIG. 1 and Table 3).

KCC2 = experiment: Composite score from primary and secondary screening; format: cell-based, mouse; details: for Total Score / Aggregate Score: sum of the three scores; for Top two hits / Aggregate Score: Mechanistic Compounds
Procedure: as §1, §3

KCC2 mRNA = experiment: Secondary screen: KCC2 RT-qPCR in primary mouse neurons; format: cell-based; details: rank score
Procedure: as §1
Total RNA was isolated from cultured cell samples using Directzol RNA miniprep kit (ZymoResearch). The protocol includes DNAse digestion to exclude genomic DNA from preparations. Total RNA (1 μg) was reverse transcribed using oligo primers (dT) and SuperScriptIII first-strand synthesis kit (Invitrogen). Gene expression was assessed by quantitative real-time PCR using 2×SYBR Green Master Mix (Qiagen) and a three-step cycling protocol (anneal at 60° C./elongate at 72° C., denature at 95° C.). Specificity of primers was verified by dissociation/melting curve for the amplicons when using SYBR Green as a detector. All reactions were performed in triplicates. The amount of target messenger RNA (mRNA) in the experimental group relative to that in the control was determined from the resulting fluorescence and threshold values (Ct) using the ΔΔCt method. βIII-tubulin was used as housekeeping gene.
oligodT-initiated reverse transcription of 1 μg total RNA, DNA-se treated, was subjected to RT-qPCR using primers specific for KCC2 for rat and KCC2 for human sequences, normalized for neuronal βIII-tubulin, as previously described (Yeo et al., 2009, J Neurosci 29:14652-14662). For cultured neurons, total RNA was extracted from pelleted cells, and for spinal cord tissue it was extracted from microdissected lumbar spinal cord dorsal horn.
as §3

nerve injury pain = experiment: Nerve constriction injury (PSNL) pain model, mechanical withdrawal; format: in vivo, mouse; details: day 7; 3 h, 4 h, 5 h after i.t injection
Procedure: For pain-related behavior, mechanical allodynia was assessed with von Frey filaments (Ugo Basile, Italy). The mice were placed on a 5×5-mm wire-mesh grid floor in individual compartments to avoid visual stimulation and allowed to adapt for 0.5 h prior to the von Frey test. The von Frey filament was then applied to the middle of the plantar surface of the hind paw with 5 g force. The withdrawal responses following the hind paw stimulation were measured at least three times, and the mechanical allodynia, which was defined as an increase in the number of withdrawal responses to the stimulation, was compared.
Thus, in vivo, KP functions as an analgesic when administered systemically in injury-related pain models.
Next, whether the analgesic effects of KP were mediated centrally at the spinal cord level was assessed.
Mechanical withdrawal was measured thresholds after nerve constriction injury (PSNL) (FIG. 12B and FIG. 12C). […] Thus, δ-cat(S276A) spinal transgenesis via AAV9 is sufficient to evoke analgesia after nerve constriction injury, to lesser degree also with δ-cat(WT). Importantly, δ-cat(S276A) spinal transgenesis was accompanied by increased expression of KCC2 in the SCDH. […] Moreover, our discovery points toward a genetically-encoded approach that can be developed for translation into clinical use as an alternative or complement to KP-related small molecules.

neuronal [Cl—]i = experiment: Clomeleon chloride imaging in rat primary cortical neurons; format: cell-based; details: VU0240551 2.5 μM add-on; both vehicle-treated and KP-treated
Procedure: as §2

Structure (SMILES)	Luciferase Score (triplicates) (KCC2 promoter; Natural Compounds)	Luciferase Score (triplicates) (KCC2 promoter; Mechanistic Compounds)	chloride reduction (%) [1]	chloride [Cl—]i mM [1]	other results
CC(=O)N1CCN(c2ccc(OCC3COC(Cn4ccnc4)(c4ccc(Cl)cc4Cl)O3)cc2)CC1 (stereo not drawn) [ketoconazole]	9				
CC1(C)C(O)OC(O)C1(C)C (stereo not drawn) [3,3,4,4-tetramethyloxolane-2,5-diol, 3,3,4,4-tetramethyl-oxolane-2,5-diol]		6			
COc1cc2c3c(c4ccc(OC)c(OC)c4c2cc1OC)CN1CCC[C@H]1C3 [tylocrebrine]	5		52%	75 => 39 mM	Clomeleon Score (duplicates) ([1]; Natural Compounds): 4; Total Score (KCC2; Natural Compounds): 12; RT-QPCR Score (triplicates) (KCC2 mRNA; Natural Compounds): 3
Cc1csc(NC(=O)CSc2ccc(-c3ccccc3)nn2)n1 [VU0240551]					effect of i.t co-application with KP on KP analgesia (nerve injury pain): eliminates the central analgesic effects of KP; [Cl—]i with add-on KCC2-transport blocker (neuronal [Cl—]i): ≥ 120 mM
COc1cc2c(c(OC)c1OC)-c1ccc(OC)c(=O)cc1[C@@H](NC(C)=O)CC2 [colchicine]	10				
Cc1ccc(NC(=O)c2cccc([N+](=O)[O-])c2O)c(C)c1 [NSC79456, n-(2,4-Dimethylphenyl)-2-hydroxy-3-nitrobenzamide]		1	32.4%	74 => 24 mM	Clomeleon Score (duplicates) ([1]; Mechanistic Compounds): 1; Top two hits (KCC2): winner; Aggregate Score (KCC2): 5; RT-QPCR Score (triplicates) (KCC2 mRNA; Mechanistic Compounds): 3
CC(=O)Nc1ccc(-c2nc3ccccc3s2)cc1 [NSC33006, N-[4-(1,3-benzothiazol-2-yl)phenyl]acetamide]		2	37.8%	74 => 28 mM	Clomeleon Score (duplicates) ([1]; Mechanistic Compounds): 2; Top two hits (KCC2): winner; Aggregate Score (KCC2): 5; RT-QPCR Score (triplicates) (KCC2 mRNA; Mechanistic Compounds): 1
CC(O)CCC(=O)c1ccoc1 (stereo not drawn) [4-Ipomeanol]		3	43.2%	74 => 32 mM	Clomeleon Score (duplicates) ([1]; Mechanistic Compounds): 3; Aggregate Score (KCC2): 8; RT-QPCR Score (triplicates) (KCC2 mRNA; Mechanistic Compounds): 2
C[C@@]12C(=O)OC(=O)[C@]1(C)[C@H]1CC[C@@H]2O1 [cantharidine]	6		48.5%	68 => 33 mM	Clomeleon Score (duplicates) ([1]; Natural Compounds): 3; Total Score (KCC2; Natural Compounds): 15; RT-QPCR Score (triplicates) (KCC2 mRNA; Natural Compounds): 6
CC1(C)CCC[C@]2(C)C3=C(CC[C@@H]12)C(=O)OC3 [confertifoline]	1		56%	75 => 42 mM	Clomeleon Score (duplicates) ([1]; Natural Compounds): 5; Total Score (KCC2; Natural Compounds): 11; RT-QPCR Score (triplicates) (KCC2 mRNA; Natural Compounds): 5
N=C1N=CN=C2C([C@@H]3O[C@H](CO)[C@@H](O)[C@H]3O)=CN=C12 [9-Deazaadenosine]		2	48.8%	82 => 40 mM	Clomeleon Score (duplicates) ([1]; Mechanistic Compounds): 5; Aggregate Score (KCC2): 11; RT-QPCR Score (triplicates) (KCC2 mRNA; Mechanistic Compounds): 4
NC(=O)c1cn(C2OC(CO)C(O)C2O)c2ncnc(N)c12 (stereo not drawn) [Sauzivamycin]		6			
COc1cc([C@@H]2c3cc4c(cc3[C@H](O[C@@H]3O[C@@H]5COC(c6ccccc6)O[C@H]5[C@H](O)[C@H]3O)[C@H]3COC(=O)[C@H]23)OCO4)cc(OC)c1OC (stereo partly drawn) [proresidor]	9				
COc1ccc(C[C@H]2NC[C@H](O)[C@H]2OC(C)=O)cc1 [anisomycine]	3		57.3%	75 => 43 mM	Clomeleon Score (duplicates) ([1]; Natural Compounds): 6; Total Score (KCC2; Natural Compounds): 13; RT-QPCR Score (triplicates) (KCC2 mRNA; Natural Compounds): 4
CC(=O)C1CCCC(=O)C=CC(=O)O1 (stereo not drawn) [NSC180515, 2-Acetyl-2,3,4,5-tetrahydrooxonine-6,9-dione]	4		32%	68 => 22 mM	Clomeleon Score (duplicates) ([1]; Natural Compounds): 1; Top 2 hits (KCC2; Natural Compounds): winner; Total Score (KCC2; Natural Compounds): 6; RT-QPCR Score (triplicates) (KCC2 mRNA; Natural Compounds): 1
COc1ccc(C(=O)O[C@H]2CC[C@@]3(C)[C@@H]4CC[C@H]5[C@]6(O)C[C@H](O)[C@@]7(O)[C@@H](CN8C[C@@H](C)CC[C@H]8[C@@]7(C)O)[C@]6(O)C[C@@]53O[C@]24O)cc1OC [veratridine]	7				
Cc1cc(-c2nc3ccccc3s2)ccc1N [4-(1,3-Benzothiazol-2-yl)-2-methylaniline]		4	46.3%	82 => 38 mM	Clomeleon Score (duplicates) ([1]; Mechanistic Compounds): 4; Aggregate Score (KCC2): 13; RT-QPCR Score (triplicates) (KCC2 mRNA; Mechanistic Compounds): 5
CC(=O)/C(=C\c1cccc([N+](=O)[O-])c1)C(=O)Nc1ccccc1C [(2E)-N-(2-methylphenyl)-2-[(3-nitrophenyl)methylidene]-3-oxobutanamide]		5			
